Read-outs that look alike come from different tables or passages of the source.
Tests used:
[1] = pharmacokinetics in healthy subjects (bioavailability, food effect, distribution, excretion); format: in vivo, human
[2] = Example 1: plasma pharmacokinetics (Cmax, Tmax, AUC0-6 hr) of belumosudil and metabolites; format: in vivo, human; conditions: for AUC0-6 hr, Geometric Mean (Geometric Coefficient of Variation): plasma
Procedure: Cmax was the maximum observed plasma concentration, obtained by a non-compartmental analysis. […] Timeframe: Cycles 1 and 2: pre-dose (0 hour), 1, 2, 3, 4, 5, and 6 hours post-dose on Day 1. […] Here, ‘number analyzed’=participants with available data for each specified category.
Tmax was defined as time to reach maximum observed plasma concentration, obtained by a non-compartmental analysis. […] Timeframe: Cycles 1 and 2: pre-dose (0 hour), 1, 2, 3, 4, 5, and 6 hours post-dose on Day 1. Analysis was performed on PK population. Here, ‘number analyzed’=participants with available data for each specified category.
AUC0-6 hr was defined as area under the plasma concentration versus time curve from time 0 to 6 hours post-dose, obtained by a non-compartmental analysis from the concentration-time data. […] Timeframe: Cycles 1 and 2: pre-dose (0 hour), 1, 2, 3, 4, 5, and 6 hours post-dose on Day 1. Analysis was performed on PK population. Here, ‘number analyzed’=participants with available data for each specified category.

[3] = test system: cGVHD; test: Example 1: corticosteroid and calcineurin inhibitor dose change; format: in vivo, human
Procedure: Progression was defined per the 2014 NIH cGVHD Consensus Criteria. Long-term follow-up was conducted every 8 weeks until study closeout. […] Screening was conducted within 28 days of the first study dose. Response was initially assessed after two cycles; however, this was amended to evaluate response on day 1 of each cycle, starting at cycle 2 day 1.
Change from Baseline in Corticosteroids Dose. An EOT visit was performed within 3 days after the participant's last dose of study drug. Baseline value was defined as valid and last non-missing value obtained within 28 days prior to participant receiving first study medication. The mITT population was analyzed, with the ‘overall number of participants analyzed’=participants with available data for this outcome measure.
Change from Baseline in Calcineurin Inhibitor (CNI). Calcineurin inhibitors included systemic tacrolimus and cyclosporine. Number of participants who took CNI at Baseline and had reduction and discontinuation in CNI use as compared to Baseline during the study are reported in this outcome measure. EOT visit was performed within 3 days after the participant's last dose of study drug. Baseline value was defined as valid and last non-missing value obtained within 28 days prior to participant receiving first study medication.

[4] = pharmacokinetics in specific populations (population pharmacokinetics); design: species or system human; conditions: in vivo
[5] = test system: patients with chronic GVHD; conditions: for Abdominal pain / Arthralgia / Cough / Decreased appetite / Diarrhea / Dysphagia / Dyspnea / Edema / Headache / Hemorrhage / Hypertension / Infection (pathogen not specified) / Muscle spasm / Musculoskeletal pain / Nasal congestion / Pruritus / Pyrexia / Rash / Viral infection / Asthenia / Nausea: 200 mg once daily (N = 83); for Asthenia: includes fatigue, malaise; for Nausea: includes nausea, vomiting
[6] = Grade 2-4 Max Post, 200 mg once daily
[7] = Grade 3-4 Max Post, 200 mg once daily

CC(C)NC(=O)COc1cccc(-c2nc(Nc3ccc4[nH]ncc4c3)c3ccccc3n2)c1 [Belumosudil, 2-{3-[4-(1H-indazol-5-ylamino)-2-quinazolinyl]phenoxy}-N-(propan-2-yl) acetamide]
food effect, Cmax increase ([1]; high-fat high-calorie meal vs fasted): 2.2 times
radioactivity recovered in feces ([1]; single oral radiolabeled dose): 85%
radioactivity recovered in urine ([1]; single oral radiolabeled dose): less than 5%
recovered in feces as unchanged ([1]; single oral radiolabeled dose): 30%
Cmax, geometric mean (geometric CV) ([2]; Cycle 1 Day 1, Cohort 1, belumosudil 200 mg QD): 2500 nanograms per milliliter
Cmax, geometric mean (geometric CV) ([2]; Cycle 1 Day 1, Cohort 2, belumosudil 200 mg BID): 1400 nanograms per milliliter
Cmax, geometric mean (geometric CV) ([2]; Cycle 1 Day 1, Cohort 3, belumosudil 400 mg QD): 2960 nanograms per milliliter
Cmax, geometric mean (geometric CV) ([2]; Cycle 2 Day 1, Cohort 1, belumosudil 200 mg QD): 2020 nanograms per milliliter
Cmax, geometric mean (geometric CV) ([2]; Cycle 2 Day 1, Cohort 2, belumosudil 200 mg BID): 1890 nanograms per milliliter
Cmax, geometric mean (geometric CV) ([2]; Cycle 2 Day 1, Cohort 3, belumosudil 400 mg QD): 3270 nanograms per milliliter
AUC0-6 hr, Geometric Mean (Geometric Coefficient of Variation) ([2]; Belumosudil 200 mg BID, Cycle 1 Day 1): 4960 hours*nanograms per milliliter
AUC0-6 hr, Geometric Mean (Geometric Coefficient of Variation) ([2]; Belumosudil 200 mg BID, Cycle 2 Day 1): 7190 hours*nanograms per milliliter
AUC0-6 hr, Geometric Mean (Geometric Coefficient of Variation) ([2]; Belumosudil 200 mg QD, Cycle 1 Day 1): 8350 hours*nanograms per milliliter
AUC0-6 hr, Geometric Mean (Geometric Coefficient of Variation) ([2]; Belumosudil 200 mg QD, Cycle 2 Day 1): 7090 hours*nanograms per milliliter
AUC0-6 hr, Geometric Mean (Geometric Coefficient of Variation) ([2]; Belumosudil 400 mg QD, Cycle 1 Day 1): 11500 hours*nanograms per milliliter
AUC0-6 hr, Geometric Mean (Geometric Coefficient of Variation) ([2]; Belumosudil 400 mg QD, Cycle 2 Day 1): 12000 hours*nanograms per milliliter
Change From Baseline in Corticosteroids Dose, mean (SD) ([3]; Cohort 1 200 mg QD): −0.110 (0.101) milligrams per kilogram per day
Participants who discontinued CNI, n (%) ([3]; Cohort 1 200 mg QD): 0 (0%)
Participants with reduction in CNI dose, n (%) ([3]; Cohort 1 200 mg QD): 5 (83%)
mean percent change in CS dose from baseline, nonresponder ([3]; Cohort 1 200 mg QD): −26%
mean percent change in CS dose from baseline, overall ([3]; Cohort 1 200 mg QD): −50%
mean percent change in CS dose from baseline, responder ([3]; Cohort 1 200 mg QD): −63%
Change From Baseline in Corticosteroids Dose, mean (SD) ([3]; Cohort 2 200 mg BID): −0.111 (0.147) milligrams per kilogram per day
Participants who discontinued CNI, n (%) ([3]; Cohort 2 200 mg BID): 1 (17%)
Participants with reduction in CNI dose, n (%) ([3]; Cohort 2 200 mg BID): 5 (83%)
mean percent change in CS dose from baseline, nonresponder ([3]; Cohort 2 200 mg BID): −37%
mean percent change in CS dose from baseline, overall ([3]; Cohort 2 200 mg BID): −36%
mean percent change in CS dose from baseline, responder ([3]; Cohort 2 200 mg BID): −36%
Change From Baseline in Corticosteroids Dose, mean (SD) ([3]; Cohort 3 400 mg QD): −0.116 (0.152) milligrams per kilogram per day
Participants who discontinued CNI, n (%) ([3]; Cohort 3 400 mg QD): 3 (27%)
Participants with reduction in CNI dose, n (%) ([3]; Cohort 3 400 mg QD): 6 (55%)
mean percent change in CS dose from baseline, nonresponder ([3]; Cohort 3 400 mg QD): −19%
mean percent change in CS dose from baseline, overall ([3]; Cohort 3 400 mg QD): −47%
mean percent change in CS dose from baseline, responder ([3]; Cohort 3 400 mg QD): −63%
median time to corticosteroid therapy discontinuation ([3]; Example 1): 29 weeks
mean corticosteroid dose reduction ([3]; Example 1, all patients): 45%
mean corticosteroid dose reduction ([3]; Example 1, nonresponders): 26%
mean corticosteroid dose reduction ([3]; Example 1, responders): 55%
mean percent change in CS dose from baseline, nonresponder ([3]; Total, N=54): −26%
mean percent change in CS dose from baseline, overall ([3]; Total, N=54): −45%
mean percent change in CS dose from baseline, responder ([3]; Total, N=54): −55%
proportion with CS reduction, % (95% CI) ([3]; Total, N=54): 67%
effect of age and body weight on pharmacokinetics (population pharmacokinetic data) [4]: no clinically meaningful effect
pharmacokinetic differences by age, sex, weight, mild to moderate renal impairment [4]: No clinically significant differences
adverse reactions leading to dose interruption ([5]; 200 mg once daily, N=83): 29%
dose interruption due to asthenia, dyspnea, hemorrhage, hypotension, liver function test abnormal, nausea, pyrexia, edema, renal failure (each) ([5]; 200 mg once daily, N=83): 2%
dose interruption due to diarrhea ([5]; 200 mg once daily, N=83): 4%
dose interruption due to infections ([5]; 200 mg once daily, N=83): 11%
patients with fatal adverse reaction ([5]; 200 mg once daily, N=83): one
permanent discontinuation due to adverse reactions ([5]; 200 mg once daily, N=83): 18%
permanent discontinuation due to nausea ([5]; 200 mg once daily, N=83): 4%
Abdominal pain ([5]; All Grades): 22%
Arthralgia ([5]; All Grades): 15%
Cough ([5]; All Grades): 30%
Decreased appetite ([5]; All Grades): 17%
Diarrhea ([5]; All Grades): 35%
Dysphagia ([5]; All Grades): 16%
Dyspnea ([5]; All Grades): 33%
Edema ([5]; All Grades): 27%
Headache ([5]; All Grades): 21%
Hemorrhage ([5]; All Grades): 23%
Hypertension ([5]; All Grades): 21%
Infection (pathogen not specified) ([5]; All Grades): 53%
Muscle spasm ([5]; All Grades): 17%
Musculoskeletal pain ([5]; All Grades): 22%
Nasal congestion ([5]; All Grades): 12%
Pruritus ([5]; All Grades): 11%
Pyrexia ([5]; All Grades): 18%
Rash ([5]; All Grades): 12%
Viral infection ([5]; All Grades): 19%
Asthenia ([5]; All Grades): 46%
Nausea ([5]; All Grades): 42%
Alanine Aminotransferase Increased [5, 6]: 7%
Alkaline Phosphatase Increased [5, 6]: 9%
Calcium Decreased [5, 6]: 12%
Creatinine Increased [5, 6]: 4%
Gamma Glutamyl Transferase Increased [5, 6]: 21%
Hemoglobin Decreased [5, 6]: 11%
Lymphocytes Decreased [5, 6]: 29%
Neutrophil Count Decreased [5, 6]: 8%
Phosphate Decreased [5, 6]: 28%
Platelets Decreased [5, 6]: 10%
Potassium Increased [5, 6]: 7%
Alanine Aminotransferase Increased [5, 7]: 2%
Alkaline Phosphatase Increased [5, 7]: 0%
Calcium Decreased [5, 7]: 1%
Creatinine Increased [5, 7]: 0%
Gamma Glutamyl Transferase Increased [5, 7]: 11%
Hemoglobin Decreased [5, 7]: 1%
Lymphocytes Decreased [5, 7]: 13%
Neutrophil Count Decreased [5, 7]: 4%
Phosphate Decreased [5, 7]: 7%
Platelets Decreased [5, 7]: 5%
Potassium Increased [5, 7]: 1%
Abdominal pain ([5]; Grades 3-4): 1%
Arthralgia ([5]; Grades 3-4): 2%
Cough ([5]; Grades 3-4): 0%
Decreased appetite ([5]; Grades 3-4): 1%
Diarrhea ([5]; Grades 3-4): 5%
Dysphagia ([5]; Grades 3-4): 0%
Dyspnea ([5]; Grades 3-4): 5%
Edema ([5]; Grades 3-4): 1%
Headache ([5]; Grades 3-4): 0%
Hemorrhage ([5]; Grades 3-4): 5%
Hypertension ([5]; Grades 3-4): 7%
Infection (pathogen not specified) ([5]; Grades 3-4): 16%
Muscle spasm ([5]; Grades 3-4): 0%
Musculoskeletal pain ([5]; Grades 3-4): 4%
Nasal congestion ([5]; Grades 3-4): 0%
Pruritus ([5]; Grades 3-4): 0%
Pyrexia ([5]; Grades 3-4): 1%
Rash ([5]; Grades 3-4): 0%
Viral infection ([5]; Grades 3-4): 4%
Asthenia ([5]; Grades 3-4): 4%
Nausea ([5]; Grades 3-4): 4%
